Laboratory results from patent publication US6692557B1, “Antifouling of shellfish and aquaculture apparatus” (Unisearch Limited, priority 1997, dated 2004).

How the values were obtained:
[1] = tested on: fouling organisms (predominantly barnacles, small percentages of bryozoans and oysters); assay: Port Stephens Stage I field trial: fouling cover on coated live oysters; assay type: in vivo; conditions: sub-tidal; for Mean fouling cover on coated oysters: 22 week trial, untreated control 50%
From the text: The field trial testing the antifouling coatings on oysters at the Port Stephens Fisheries Centre was finalised on week 22 of the trial. This coincided with the slight increase, at varying rates, of the fouling cover on the treated oysters, as shown by FIG. 8.
The trial was testing the antifouling efficacy of two different active ingredients (AI's). Sea-Nine 211™ and the furanone 281, incorporated into carrier coatings when applied to live oysters. The AI's are being tested at concentrations ranging from 10-15% by weight of the carrier coating, using both single and double coats. The trial was conducted in both the inter-tidal and the sub-tidal. In addition to monitoring fouling, oyster mortality was monitored to determine if the coatings and methods used were harmful to the oysters.
Fouling cover was first measured 6 weeks after the start of the trial and has been measured every 3 weeks thereafter. Coated oysters were photographed in the field using a digital camera and fouling cover was measured in the laboratory using the digital images. Fouling cover was measured by estimating the percentage cover of fouling organisms on the oysters. The fouling cover observed was comprised predominantly of barnacles and a small percentages of bryozoans and oysters.

Pacific oyster recruits = assay: Port Stephens Stage I field trial: Pacific oyster bycatch on coated oysters; assay type: in vivo; conditions: sub-tidal, double coated treatments, at either 10 or 15%
From the text: After twelve weeks into the fouling trial there was a Pacific oyster settlement event. This enabled an observation of the efficacy of the different coatings as inhibitors of oyster bycatch. FIG. 9 presents the number of new Pacific oyster recruits that settled on the coated oysters.

fouling organisms = assay: Stage II shellac trial: fouling on coated perspex tiles; assay type: in vivo; conditions: shellac carrier, 10% double layer, 15% single and double layers, controls 75% fouling cover after 4 weeks
Protocol: (§1) The shellac trial (stage II) was run for 30 weeks. This experiment was conducted to improve novel antifouling techniques for the aquaculture industry. Shellac was used as a carrier to coat Sea-Nine 211™ onto perspex tiles to determine whether Shellac with C9-211 was effective as an antifouling application and whether the rate at which Sea-Nine 211™ would leach out of the shellac formulation.

[2] = Stage II shellac trial: leaching / release of Sea-Nine 211 from shellac; assay type: physicochemical
Protocol: as §1
Measurements of leaching were carried out to determine the decrease in concentration of Sea-Nine 211™ in each treatment, as shown on FIG. 11. This indicates a regular rate of leaching over the 18 week trial period for each treatment of the same concentration. The rate of leaching is highest for the 15% Sea-Nine 211™ loadings (single and double), while decreasing with reduced compound loading.
The rate of compound release per day is important on determining the effectiveness of a given treatment over time (FIG. 12). Treatments 5% single layer, 10% single and double layer and 15% double layer had the highest initial drops with release rates from 1-2 μg/cm^2/day. The release rate varied for each treatment, over the following 16 weeks, but remained less than 2.0 μg/cm^2/day (FIG. 12).

CCCCCCCCn1sc(Cl)c(Cl)c1=O [Sea-Nine 211™, 4,5-dichloro-2-n-octyl-4-isothiazolin-3-one]
Mean fouling cover on coated oysters ([1]; active ingredient 10%, single and double coatings): 20%
Mean fouling cover on coated oysters ([1]; active ingredient 15% in carrier coating, single and double coats): 15%
Inhibition of fouling cover ([1]; 15% single and double coats): 85%
Inhibition of Pacific oyster bycatch (Pacific oyster recruits): almost totally inhibiting bycatch
Time tiles remained unfouled (fouling organisms): 30 weeks
Rate of leaching from shellac ([2]; 15% loadings (single and double), 18 week trial period): highest
Release rate from shellac ([2]; each treatment, over the following 16 weeks): less than 2.0 μg/cm^2/day
Release rate from shellac ([2]; initial, treatments 5% single layer, 10% single and double layer, 15% double layer): 1-2 μg/cm^2/day
